“Also recorded” adds a separate entry of the source.
Tests used:
[1] = system: H3122 cell line (EML4-ALK variant 1); test: MTS cell growth assay, H3122; format: cell-based; settings: Homo sapiens, NCI-H3122, read-out: IC50, growth inhibition, H3122, 72 hours
Procedure: (§1) Growth and inhibition of growth was assessed by methoxy-tetrazolium salt (MTS) assay. This assay, a colorimetric method for determining the number of viable cells, is based on the bioreduction of 3-(4,5-dimethylthiazol-2-yl)-5-(3-carboxymethoxyphenyl)-2-(4-sulfophenyl)-2H-tetrazolium (MTS) by cells to a formazan product that is soluble in cell culture medium, can be detected spectrophotometrically. NSCLC cells were exposed to treatment for 72 hours and the number of cells used per experiment determined empirically. All experimental points were set up in six to twelve wells and all experiments were repeated at least three times. […] The curves were fitted using a non-linear regression model with a sigmoidal dose response.

[2] = system: H2228 cell line (EML4-ALK variant 3); test: MTS cell growth assay, H2228; format: cell-based; settings: Homo sapiens, NCI-H2228, read-out: IC50, growth inhibition, H2228, 72 hours
Procedure: as §1

[3] = system: DFCI032 cell line (EML4-ALK variant 1); test: MTS cell growth assay, DFCI032; format: cell-based; settings: Homo sapiens, read-out: IC50, growth inhibition, DFCI032, 72 hours
Procedure: as §1

[4] = system: PC-9 cell line (EGFR delE746_A750); test: MTS cell growth assay, PC-9; format: cell-based, human; settings: PC-9, 72 hours
Text: All experimental points were set up in six to twelve wells and all experiments were repeated at least three times. […] The curves were fitted using a non-linear regression model with a sigmoidal dose response.

[5] = system: A549 cell line (K-Ras G12S); test: MTS cell growth assay, A549; format: cell-based, human; settings: A549, 72 hours
Procedure: as §1

H3122 cell line = test: Apoptosis by FACS (sub G1) and Western blot for cleaved PARP, H3122; format: cell-based, human; settings: H3122, 0.1 μM, 72 h
Procedure: (§2) The supernatant was used for subsequent procedures. […] Immunoblotting was performed according to the antibody manufacturers' recommendations. […] Total ERK1/2 and phospho-ERK1/2 (pT185/pY187) antibodies were purchased from Biosource International (Camarillo, Calif.).
Cells were collected and fixed in 40% ethanol for at least 1 hour (or until ready for the experiment) at 4° C. The fixed cells were treated with 0.5 mL of […] RNase A for 45 minutes at 37° C. and stained with […] propidium iodide (in 38 mM sodium citrate) for at least 30 minutes at room temperature in the dark. The stained cells were then analyzed for DNA content in a Becton Dickinson fluorescence-activated cell sorter using both ModFit (Verity Software House, Topsham, Me.) and CellQuest (Becton Dickinson, San Jose, Calif.) programs.

[6] = system: other cell lines (H2228, DFCI032, PC-9, A549); test: Growth arrest / apoptosis in the other NSCLC cell lines; format: cell-based, human; settings: other cell lines than H3122
Procedure: as §1, §2
Cells were collected and fixed in 40% ethanol for at least 1 hour (or until ready for the experiment) at 4° C. […] The stained cells were then analyzed for DNA content in a Becton Dickinson fluorescence-activated cell sorter using both ModFit (Verity Software House, Topsham, Me.) and CellQuest (Becton Dickinson, San Jose, Calif.) programs.

[7] = system: Akt, STAT3 and ERK 1/2 phosphorylation in H3122; test: Western blot of downstream signalling, H3122; format: cell-based, human; settings: H3122, 0.1 μM, 6 hours
Procedure: as §2

[8] = system: Akt, STAT3 and ERK 1/2 phosphorylation in H2228; test: Western blot of downstream signalling, H2228; format: cell-based, human; settings: H2228, 0.1 μM, 6 hours
Procedure: as §2

[9] = system: Akt, STAT3 and ERK 1/2 phosphorylation in DFCI032; test: Western blot of downstream signalling, DFCI032; format: cell-based, human; settings: DFCI032, 0.1 μM, 6 hours
Procedure: as §2

[10] = system: Akt, STAT3 and ERK 1/2 phosphorylation in PC-9; test: Western blot of downstream signalling, PC-9; format: cell-based, human; settings: PC-9, 0.1 μM, 6 hours
Procedure: as §2

Karpas 299 cells = settings: NPM-ALK positive lymphoma cells; cited from earlier work
[11] = in vivo; cited from earlier work
ALK kinase = ALK kinase (Homo sapiens, UniProt Q9UM73); settings: initial studies, Li et al.; read-out: IC50 (ALK inhibitors); cited from earlier work
ALK kinase, sequence (Q9UM73 19-1620): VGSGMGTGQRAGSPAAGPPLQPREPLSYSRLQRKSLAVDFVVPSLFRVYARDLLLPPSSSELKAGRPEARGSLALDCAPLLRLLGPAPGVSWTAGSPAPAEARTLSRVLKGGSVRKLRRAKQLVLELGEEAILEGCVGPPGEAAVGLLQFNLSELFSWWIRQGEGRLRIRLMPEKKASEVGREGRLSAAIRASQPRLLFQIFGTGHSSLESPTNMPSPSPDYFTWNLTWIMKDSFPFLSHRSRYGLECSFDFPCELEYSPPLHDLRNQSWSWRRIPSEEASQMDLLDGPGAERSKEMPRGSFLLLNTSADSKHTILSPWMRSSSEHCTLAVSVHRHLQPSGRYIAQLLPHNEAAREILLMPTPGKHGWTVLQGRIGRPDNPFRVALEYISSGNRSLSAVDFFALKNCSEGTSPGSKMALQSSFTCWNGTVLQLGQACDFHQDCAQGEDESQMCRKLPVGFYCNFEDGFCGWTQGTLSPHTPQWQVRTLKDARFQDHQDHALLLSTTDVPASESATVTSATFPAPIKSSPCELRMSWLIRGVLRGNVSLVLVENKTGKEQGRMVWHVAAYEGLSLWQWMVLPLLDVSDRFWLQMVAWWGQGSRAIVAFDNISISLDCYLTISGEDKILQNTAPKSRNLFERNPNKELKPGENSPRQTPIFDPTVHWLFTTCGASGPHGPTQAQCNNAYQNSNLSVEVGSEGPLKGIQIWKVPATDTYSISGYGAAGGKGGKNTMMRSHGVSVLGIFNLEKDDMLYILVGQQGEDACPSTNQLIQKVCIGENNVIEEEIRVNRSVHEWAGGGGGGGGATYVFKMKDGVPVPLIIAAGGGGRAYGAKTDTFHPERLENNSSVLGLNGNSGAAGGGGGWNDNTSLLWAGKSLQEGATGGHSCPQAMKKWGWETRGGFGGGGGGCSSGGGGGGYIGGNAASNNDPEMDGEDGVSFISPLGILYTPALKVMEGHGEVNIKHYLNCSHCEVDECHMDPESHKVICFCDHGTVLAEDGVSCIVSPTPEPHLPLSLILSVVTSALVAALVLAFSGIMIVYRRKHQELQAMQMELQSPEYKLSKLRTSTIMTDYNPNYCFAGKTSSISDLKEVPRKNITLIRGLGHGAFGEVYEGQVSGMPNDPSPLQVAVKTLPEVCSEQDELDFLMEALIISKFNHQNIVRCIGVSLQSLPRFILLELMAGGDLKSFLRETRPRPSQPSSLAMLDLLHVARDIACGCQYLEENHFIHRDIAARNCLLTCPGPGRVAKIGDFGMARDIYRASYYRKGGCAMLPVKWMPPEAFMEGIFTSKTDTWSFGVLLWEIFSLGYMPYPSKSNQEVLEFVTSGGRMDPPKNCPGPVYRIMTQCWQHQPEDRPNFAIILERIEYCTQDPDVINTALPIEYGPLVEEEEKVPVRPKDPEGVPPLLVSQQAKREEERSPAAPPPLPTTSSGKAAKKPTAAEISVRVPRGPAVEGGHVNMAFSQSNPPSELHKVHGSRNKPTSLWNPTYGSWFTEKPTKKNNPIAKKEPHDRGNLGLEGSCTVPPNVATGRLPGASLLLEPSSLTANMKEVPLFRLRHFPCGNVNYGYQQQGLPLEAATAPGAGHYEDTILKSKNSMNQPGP

[12] = system: EML4-ALK fusion transformed Ba/F3 models; settings: original study describing the EML4-ALK fusion gene; cited from earlier work

| Structure (SMILES) | IC50 [1] [nM] | IC50 [2] [nM] | IC50 [3] [nM] | growth: resistance to the inhibitor [4] | growth: resistance to the inhibitor [5] | 89 kDa cleaved PARP product (Western blot) (H3122 cell line) | apoptosis (FACS sub G1 fraction / cleaved PARP) (H3122 cell line) | apoptosis (FACS sub G1 fraction / cleaved PARP) (H3122 cell line; listed as TAE-684) | growth arrest or apoptosis [6] | Akt, STAT3 and ERK 1/2 phosphorylation [7] | Akt, STAT3 and ERK 1/2 phosphorylation [8] | Akt, STAT3 and ERK 1/2 phosphorylation [9] | Akt, STAT3 and ERK 1/2 phosphorylation [10] | IC50 (Karpas 299 cells) [nM] | bioavailability [11] | IC50 (ALK kinase) [nM] | growth inhibition [12] |
| --- | --- | --- | --- | --- | --- | --- | --- | --- | --- | --- | --- | --- | --- | --- | --- | --- | --- |
| COc1cc(N2CCC(N3CCN(C)CC3)CC2)ccc1Nc1ncc(Cl)c(Nc2ccccc2S(=O)(=O)C(C)C)n1 [NVP-TAE684] | ~10 | 1000 to 10000 | 1000 to 10000 | resistant | resistant | observed | significant apoptosis | Significant apoptosis | No growth arrest or apoptosis | substantial inhibition; also recorded: decrease | some but not complete inhibition; also recorded: only partial inhibition; also recorded: decrease | unchanged; also recorded: no inhibition | unchanged | 2 to 5 | good |  |  |
| C[C@@H](Oc1cc(-c2cnn(C3CCNCC3)c2)cnc1N)c1c(Cl)ccc(F)c1Cl [PF-02341066] |  |  |  |  |  |  |  |  |  |  |  |  |  | 26 | good |  |  |
| COc1cc2ncnc(Nc3ccc(O)c(Br)c3)c2cc1OC [WHI-P154] |  |  |  |  |  |  |  |  |  |  |  |  |  |  |  | ~5000 | growth inhibition |

From patent US20110110923A1, “FISH ASSAY FOR EML4 AND ALK FUSION IN LUNG CANCER” (The Brigham and Women's Hospital, Inc., priority 2008, published 2011)
